The source of these data is US7741327B2 (Hoffmann-La Roche Inc., priority 2008, dated 2010).

Some results are limits rather than exact numbers.

The experiment addresses T1, Recombinant human liver GK1 (GST-GK) (Homo sapiens, UniProt P35557).
T1 construct: made in house; host or cells: E. coli
T1 sequence (P35557 1-466 isoform P35557-2): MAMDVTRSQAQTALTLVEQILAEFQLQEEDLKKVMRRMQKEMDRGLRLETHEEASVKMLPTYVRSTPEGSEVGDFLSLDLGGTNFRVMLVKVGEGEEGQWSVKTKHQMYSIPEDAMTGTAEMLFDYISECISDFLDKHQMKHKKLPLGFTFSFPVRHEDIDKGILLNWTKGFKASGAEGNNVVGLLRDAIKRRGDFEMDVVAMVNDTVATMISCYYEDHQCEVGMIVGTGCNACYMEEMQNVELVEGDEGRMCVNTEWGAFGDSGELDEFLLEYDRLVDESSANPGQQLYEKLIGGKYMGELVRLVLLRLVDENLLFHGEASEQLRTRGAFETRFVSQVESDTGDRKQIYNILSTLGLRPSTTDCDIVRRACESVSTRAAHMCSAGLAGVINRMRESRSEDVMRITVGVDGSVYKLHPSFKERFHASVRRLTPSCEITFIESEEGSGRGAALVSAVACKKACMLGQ
The experiment can be described thus: In vitro glucokinase activity (G6PDH-coupled NADH assay). Type of experiment: biochemical. The following applies: for SC1.5 (concentration of activator that produced a 50% increase in the activity of GK): 30° C., 5 mM D-glucose, 10% DMSO; for fold act. @ 30 μM: at 30 μM test compound. In a few lines: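 GST-tagged human liver GK1 from E. coli, assayed at 30° C in 25 mM Hepes pH 7.1 with 5 mM D-glucose, 1 mM ATP, 1.8 mM NAD and G6PDH coupling, 10% DMSO final; reaction started with enzyme after 10 min preincubation. NADH formation followed at OD340; SC1.5 is activator concentration giving 50% increase over DMSO control rate.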

For `CC(C)C[C@@H](C(=O)Nc1ccn(C[C@@H](O)CO)n1)N1CC(Oc2cccc3c2CCCC3)=CC1=O` [Example 98, (S)-4-Methyl-2-[2-oxo-4-(5,6,7,8-tetrahydro-naphthalen-1-yloxy)-2,5-dihydro-pyrrol-1-yl]-pentanoic acid [1-((R)-2,3-dihydroxy-propyl)-1H-pyrazol-3-yl]-amide], the “SC1.5 (concentration of activator that produced a 50% increase in the activity of GK)” value stood at 0.212 µM. Still for that read-out and setting: the value for `COc1ccc(OC2=CC(=O)N([C@@H](CC(C)C)C(=O)Nc3ccn(C[C@@H](O)CO)n3)C2)cc1` [Example 99, (S)-2-[4-(4-Methoxy-phenoxy)-2-oxo-2,5-dihydro-pyrrol-1-yl]-4-methyl-pentanoic acid [1-((R)-2,3-dihydroxy-propyl)-1H-pyrazol-3-yl]-amide] was 0.747 µM; that for `CC(C)C[C@@H](C(=O)Nc1ccn(C[C@@H](O)CO)n1)N1CC(Oc2cccc3ccccc23)=CC1=O` [Example 100, (S)-4-Methyl-2-[4-(naphthalen-1-yloxy)-2-oxo-2,5-dihydro-pyrrol-1-yl]-pentanoic acid [1-((R)-2,3-dihydroxy-propyl)-1H-pyrazol-3-yl]-amide] was 0.06 µM. In the case of `CC(C)C[C@@H](C(=O)Nc1ccn(C[C@@H](O)CO)n1)N1CC(Oc2cc(F)ccc2F)=CC1=O` [Example 101, (S)-2-[4-(2,5-Difluoro-phenoxy)-2-oxo-2,5-dihydro-pyrrol-1-yl]-4-methyl-pentanoic acid [1-((R)-2,3-dihydroxy-propyl)-1H-pyrazol-3-yl]-amide], the “SC1.5 (concentration of activator that produced a 50% increase in the activity of GK)” value amounted to 0.33 µM. For the compound `CC(C)C[C@@H](C(=O)Nc1ccn(C[C@@H](O)CO)n1)N1CC(Oc2ccc(F)cc2F)=CC1=O` [Example 102, (S)-2-[4-(2,4-Difluoro-phenoxy)-2-oxo-2,5-dihydro-pyrrol-1-yl]-4-methyl-pentanoic acid [1-((R)-2,3-dihydroxy-propyl)-1H-pyrazol-3-yl]-amide], the “SC1.5 (concentration of activator that produced a 50% increase in the activity of GK)” value is 0.578 µM. Still for that read-out and setting: the value for `Cc1ccc(F)c(OC2=CC(=O)N([C@@H](CC(C)C)C(=O)Nc3ccn(C[C@@H](O)CO)n3)C2)c1` [Example 103, (S)-2-[4-(2-Fluoro-5-methyl-phenoxy)-2-oxo-2,5-dihydro-pyrrol-1-yl]-4-methyl-pentanoic acid [1-((R)-2,3-dihydroxy-propyl)-1H-pyrazol-3-yl]-amide] was 0.072 µM.

Consider `COCCc1nsc(NC(=O)[C@H](CC(C)C)N2CC(Oc3ccccc3Cl)=CC2=O)n1` [Example 104, (S)-2-[4-(2-Chloro-phenoxy)-2-oxo-2,5-dihydro-pyrrol-1-yl]-4-methyl-pentanoic acid [3-(2-methoxy-ethyl)-[1,2,4]thiadiazol-5-yl]-amide], for which the “SC1.5 (concentration of activator that produced a 50% increase in the activity of GK)” value turned out to be 1.03 µM. Take `CC(C)C[C@@H](C(=O)Nc1nc(C2CC2)ns1)N1CC(Oc2ccccc2Cl)=CC1=O` [Example 105, (S)-2-[4-(2-Chloro-phenoxy)-2-oxo-2,5-dihydro-pyrrol-1-yl]-4-methyl-pentanoic acid (3-cyclopropyl-[1,2,4]thiadiazol-5-yl)-amide]: the “SC1.5 (concentration of activator that produced a 50% increase in the activity of GK)” value was above 30 µM and the “fold act. @ 30 μM” value turned out to be 1.4 fold. Turning to `CC(C)C[C@@H](C(=O)Nc1nc(CCC(F)(F)F)ns1)N1CC(Oc2ccccc2Cl)=CC1=O` [Example 106, (S)-2-[4-(2-Chloro-phenoxy)-2-oxo-2,5-dihydro-pyrrol-1-yl]-4-methyl-pentanoic acid [3-(3,3,3-trifluoro-propyl)-[1,2,4]thiadiazol-5-yl]-amide], the “SC1.5 (concentration of activator that produced a 50% increase in the activity of GK)” value is around 30 µM and the “fold act. @ 30 μM” value is reported as 1.5 fold. The like results for `Cc1nsc(NC(=O)[C@H](CC(C)C)N2CC(Oc3ccccc3Cl)=CC2=O)n1` [Example 107, (S)-2-[4-(2-Chloro-phenoxy)-2-oxo-2,5-dihydro-pyrrol-1-yl]-4-methyl-pentanoic acid (3-methyl-[1,2,4]thiadiazol-5-yl)-amide] were, in that order, above 30 µM and 1.4 fold. The like results for `CC(C)C[C@@H](C(=O)Nc1nc(N(C)C)ns1)N1CC(Oc2ccccc2Cl)=CC1=O` [Example 108, (S)-2-[4-(2-Chloro-phenoxy)-2-oxo-2,5-dihydro-pyrrol-1-yl]-4-methyl-pentanoic acid (3-dimethylamino-[1,2,4]thiadiazol-5-yl)-amide] were, in that order, above 30 µM and 1.4 fold. Turning to `COc1ccc(Cc2nsc(NC(=O)[C@H](CC(C)C)N3CC(Oc4ccccc4Cl)=CC3=O)n2)cc1` [Example 109, (S)-2-[4-(2-Chloro-phenoxy)-2-oxo-2,5-dihydro-pyrrol-1-yl]-4-methyl-pentanoic acid [3-(4-methoxy-benzyl)-[1,2,4]thiadiazol-5-yl]-amide], the “SC1.5 (concentration of activator that produced a 50% increase in the activity of GK)” value was above 30 µM and the “fold act. @ 30 μM” value turned out to be 1.3 fold. As to `CCc1nsc(NC(=O)[C@H](CC(C)C)N2CC(Oc3ccccc3Cl)=CC2=O)n1` [Example 110, (S)-2-[4-(2-Chloro-phenoxy)-2-oxo-2,5-dihydro-pyrrol-1-yl]-4-methyl-pentanoic acid (3-ethyl-[1,2,4]thiadiazol-5-yl)-amide], the “SC1.5 (concentration of activator that produced a 50% increase in the activity of GK)” value came to 3.478 µM. Same read-out and setting: the value for `C=CCOC(=O)Cc1nsc(NC(=O)[C@H](CC(C)C)N2CC(Oc3ccccc3Cl)=CC2=O)n1` [Example 111, (5-{(S)-2-[4-(2-Chloro-phenoxy)-2-oxo-2,5-dihydro-pyrrol-1-yl]-4-methyl-pentanoylamino}-[1,2,4]thiadiazol-3-yl)-acetic acid allyl ester] was 0.694 µM; that for `COCc1nsc(NC(=O)[C@H](CC(C)C)N2CC(Oc3ccccc3Cl)=CC2=O)n1` [Example 112, (S)-2-[4-(2-Chloro-phenoxy)-2-oxo-2,5-dihydro-pyrrol-1-yl]-4-methyl-pentanoic acid (3-methoxymethyl-[1,2,4]thiadiazol-5-yl)-amide] was 2.26 µM; that for `CC(=O)Cc1nsc(NC(=O)[C@H](CC(C)C)N2CC(Oc3ccccc3Cl)=CC2=O)n1` [Example 113, (S)-2-[4-(2-Chloro-phenoxy)-2-oxo-2,5-dihydro-pyrrol-1-yl]-4-methyl-pentanoic acid [3-(2-oxo-propyl)-[1,2,4]thiadiazol-5-yl]-amide] was 1.737 µM.

Regarding `CCOc1cccc(OC2=CC(=O)N([C@@H](CC(C)C)C(=O)Nc3ccn(CC(C)(C)O)n3)C2)c1F` [Example 114, (S)-2-[4-(3-Ethoxy-2-fluoro-phenoxy)-2-oxo-2,5-dihydro-pyrrol-1-yl]-4-methyl-pentanoic acid [1-(2-hydroxy-2-methyl-propyl)-1H-pyrazol-3-yl]-amide], the “SC1.5 (concentration of activator that produced a 50% increase in the activity of GK)” value is 0.02 µM. On the same count and under the same terms, the value for `CCOc1cccc(OC2=CC(=O)N([C@@H](CC(C)C)C(=O)Nc3ccn(C[C@@H](O)CO)n3)C2)c1F` [Example 115, (S)-2-[4-(3-Ethoxy-2-fluoro-phenoxy)-2-oxo-2,5-dihydro-pyrrol-1-yl]-4-methyl-pentanoic acid [1-((R)-2,3-dihydroxy-propyl)-1H-pyrazol-3-yl]-amide] was 0.027 µM; that for `CCOc1ccc(F)c(OC2=CC(=O)N([C@@H](CC(C)C)C(=O)Nc3ccn(C[C@@H]4COC(C)(C)O4)n3)C2)c1F` [Example 116, (S)-2-[4-(3-Ethoxy-2,6-difluoro-phenoxy)-2-oxo-2,5-dihydro-pyrrol-1-yl]-4-methyl-pentanoic acid [1-((R)-2,2-dimethyl-[1,3]dioxolan-4-yl-methyl)-1H-pyrazol-3-yl]-amide] was 0.22 µM; that for `CCOc1ccc(F)c(OC2=CC(=O)N([C@@H](CC(C)C)C(=O)Nc3ccn(C[C@@H](O)CO)n3)C2)c1F` [Example 117, (S)-2-[4-(3-Ethoxy-2,6-difluoro-phenoxy)-2-oxo-2,5-dihydro-pyrrol-1-yl]-4-methyl-pentanoic acid [1-((R)-2,3-dihydroxy-propyl)-1H-pyrazol-3-yl]-amide] was 0.034 µM. As for `COc1ccc(F)c(OC2=CC(=O)N([C@@H](CC(C)C)C(=O)Nc3ccn(C[C@@H]4COC(C)(C)O4)n3)C2)c1F` [Example 118, (S)-2-[4-(2,6-Difluoro-3-methoxy-phenoxy)-2-oxo-2,5-dihydro-pyrrol-1-yl]-4-methyl-pentanoic acid [1-((R)-2,2-dimethyl-[1,3]dioxolan-4-yl-methyl)-1H-pyrazol-3-yl]-amide], the “SC1.5 (concentration of activator that produced a 50% increase in the activity of GK)” value was 0.256 µM. For the compound `COc1ccc(F)c(OC2=CC(=O)N([C@@H](CC(C)C)C(=O)Nc3ccn(C[C@@H](O)CO)n3)C2)c1F` [Example 119, (S)-2-[4-(2,6-Difluoro-3-methoxy-phenoxy)-2-oxo-2,5-dihydro-pyrrol-1-yl]-4-methyl-pentanoic acid [1-((R)-2,3-dihydroxy-propyl)-1H-pyrazol-3-yl]-amide], the “SC1.5 (concentration of activator that produced a 50% increase in the activity of GK)” value came out at 0.072 µM.
